Key:
[1] = target: human Factor XIa (Homo sapiens (Human), UniProt P03951); assay: Factor XIa Assay (fluorogenic substrate GPR-AFC); assay type: biochemical; conditions: Factor XIa (FXIa)
[2] = target: Human plasma kallikrein (Homo sapiens (Human), UniProt P03952); assay: Kallikrein Assay (fluorogenic substrate Acetyl-K-P-R-AFC); assay type: biochemical; conditions: Plasma Kallikrein (PKal)
Summary of the method: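 Ki is derived from IC50 with the Cheng-Prusoff equation, and IC50 from the inflection point of a four-parameter logistic curve. The rate of AFC release is read with 0.5 nM purified enzyme and […] substrate at room temperature or 37 °C.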

Chain of human Factor XIa (P03951 388-625 limits assumed): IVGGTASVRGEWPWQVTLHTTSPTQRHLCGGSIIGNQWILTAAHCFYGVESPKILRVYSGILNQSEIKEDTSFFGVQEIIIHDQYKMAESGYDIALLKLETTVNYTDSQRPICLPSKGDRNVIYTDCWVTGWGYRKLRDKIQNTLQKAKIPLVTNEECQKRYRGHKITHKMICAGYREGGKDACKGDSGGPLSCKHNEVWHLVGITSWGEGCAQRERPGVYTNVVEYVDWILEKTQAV
Chain of human Factor XIa (P03951 19-387 partner limits assumed): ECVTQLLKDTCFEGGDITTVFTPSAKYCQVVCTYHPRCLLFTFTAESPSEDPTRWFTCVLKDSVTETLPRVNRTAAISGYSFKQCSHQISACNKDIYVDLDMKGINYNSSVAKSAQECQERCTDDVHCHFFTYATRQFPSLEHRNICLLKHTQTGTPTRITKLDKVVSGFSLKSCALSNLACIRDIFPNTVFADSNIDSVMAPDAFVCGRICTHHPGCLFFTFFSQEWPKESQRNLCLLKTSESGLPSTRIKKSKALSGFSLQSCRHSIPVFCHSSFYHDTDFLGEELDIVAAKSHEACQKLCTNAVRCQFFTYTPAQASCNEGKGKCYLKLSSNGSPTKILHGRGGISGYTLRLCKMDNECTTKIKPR
Chain of Human plasma kallikrein (P03952 391-638): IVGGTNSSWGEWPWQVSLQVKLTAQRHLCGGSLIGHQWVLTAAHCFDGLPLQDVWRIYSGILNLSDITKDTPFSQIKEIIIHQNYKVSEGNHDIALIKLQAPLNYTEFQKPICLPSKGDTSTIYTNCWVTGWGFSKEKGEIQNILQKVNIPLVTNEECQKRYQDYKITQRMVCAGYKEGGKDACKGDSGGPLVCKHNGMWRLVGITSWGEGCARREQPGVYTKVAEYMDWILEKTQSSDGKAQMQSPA
Chain of Human plasma kallikrein (P03952 20-390 partner): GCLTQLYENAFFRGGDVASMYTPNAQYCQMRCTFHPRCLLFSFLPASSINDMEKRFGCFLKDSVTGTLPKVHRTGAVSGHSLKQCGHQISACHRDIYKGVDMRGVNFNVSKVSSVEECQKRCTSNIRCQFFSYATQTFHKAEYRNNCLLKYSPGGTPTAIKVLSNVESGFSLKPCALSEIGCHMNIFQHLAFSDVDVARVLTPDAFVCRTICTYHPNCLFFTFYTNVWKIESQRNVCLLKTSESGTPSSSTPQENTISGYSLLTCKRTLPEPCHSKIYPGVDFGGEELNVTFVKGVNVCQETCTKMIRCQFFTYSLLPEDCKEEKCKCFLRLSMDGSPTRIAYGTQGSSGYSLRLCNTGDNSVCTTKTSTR

SMILES	IC50 [1] [nM]	IC50 [2] [nM]
Cc1nc(N2C[C@H]3C[C@H]3C2=O)c(F)cc1C(C)n1cc(NC(=O)c2cncc(-c3c(C(F)F)ccc(Cl)c3F)n2)cn1 (stereo partly drawn) [Example 151, 6-(3-Chloro-6-(difluoromethyl)-2-fluorophenyl)-N-(1-(1-(5-fluoro-2-methyl-6-((1R.5S)-2-oxo-3-azabicyclo[3.1.0]hexan-3-yl)pyridin-3-yl)ethyl)-1H-pyrazol-4-yl)pyrazine-2-carboxamide]	> 10000	5.8
Cc1c(C(C)n2cc(NC(=O)c3cncc(-c4c(OC(F)F)ccc(Cl)c4F)n3)cn2)cnc(N2C[C@H]3C[C@H]3C2=O)c1F (single isomer, unassigned) [Example 134, 6-(3-Chloro-6-(difluoromethoxy)-2-fluorophenyl)-N-(1-((R or S)-1-(5-fluoro-4-methyl-6-((1R,5S)-2-oxo-3-azabicyclo[3.1.0]hexan-3-yl)pyridin-3-yl)ethyl)-1H-pyrazol-4-yl)pyrazine-2-carboxamide]	5570	13.9
CC(c1cnc(N2C[C@H]3C[C@H]3C2=S)nc1)n1cc(NC(=O)c2cncc(-c3c(C(F)F)ccc(Cl)c3F)n2)cn1 (single isomer, unassigned) [Example 31, 6-(3-Chloro-6-(difluoromethyl)-2-fluorophenyl)-N-(1-((S or R)-1-(2-((1R,5S)-2-thioxo-3-azabicyclo[3.1.0]hexan-3-yl)pyrimidin-5-yl)ethyl)-1H-pyrazol-4-yl)pyrazine-2-carboxamide]	> 10000	6.3
C[C@@H](c1cnc(N2C[C@H]3C[C@H]3C2=O)nc1)n1cc(NC(=O)c2nc(-c3c(C(F)F)ccc(Cl)c3F)cnc2COC(C)(C)C)cn1 [Example 192, 3-(tert-Butoxymethyl)-6-(3-chloro-6-(difluoromethyl)-2-fluorophenyl)-N-(1-((S)-1-(2-((1R,5S)-2-oxo-3-azabicyclo[3.1.0]hexan-3-yl)pyrimidin-5-yl)ethyl)-1H-pyrazol-4-yl)pyrazine-2-carboxamide]	6830	4.4
Cc1ncc(-c2c(C(F)F)ccc(Cl)c2F)nc1C(=O)Nc1cnn(C(C)c2ccc(N3CC4CC4C3=O)nc2)c1 (single isomer, unassigned) [Example 74, 6-(3-Chloro-6-(difluoromethyl)-2-fluorophenyl)-3-methyl-N-(1-((S or R)-1-(6-((1R,5S or 1S,5R)-2-oxo-3-azabicyclo[3.1.0]hexan-3-yl)pyridin-3-yl)ethyl)-1H-pyrazol-4-yl)pyrazine-2-carboxamide]	7600	14.6
Cc1nc(C2(n3cc(NC(=O)c4nc(-c5c(C(F)F)ccc(Cl)c5F)cnc4COC(C)(C)C)cn3)CC2)cnc1N1C[C@H]2C[C@H]2C1=O [Example 222, 3-(tert-Butoxymethyl)-6-(3-chloro-6-(difluoromethyl)-2-fluorophenyl)-N-(1-(1-(6-methyl-5-((1R,5S)-2-oxo-3-azabicyclo[3.1.0]hexan-3-yl)pyrazin-2-yl)cyclopropyl)-1H-pyrazol-4-yl)pyrazine-2-carboxamide]	> 10000	16.7
Cc1ncc(-c2c(C#N)ccc(Cl)c2F)nc1C(=O)Nc1cnn(C(C)c2cnc(N3C[C@H]4C[C@H]4C3=O)c(F)c2C)c1 (single isomer, unassigned) [Example 135, 6-(3-Chloro-6-cyano-2-fluorophenyl)-N-(1-((S or R)-1-(5-fluoro-4-methyl-6-((1R,5S)-2-oxo-3-azabicyclo[3.1.0]hexan-3-yl)pyridin-3-yl)ethyl)-1H-pyrazol-4-yl)-3-methylpyrazine-2-carboxamide]	4880	5.4
Cc1ncc(-c2c(C(F)F)ccc(Cl)c2F)nc1C(=O)Nc1cnn(C(C)c2cnc(N3C[C@H]4C[C@H]4C3=O)c(OC(F)F)c2C)c1 (single isomer, unassigned) [Example 225]	5740	0.9
Cc1nc(N2C[C@H]3C[C@H]3C2=O)ncc1C1(n2cc(NC(=O)c3nc(-c4c(C(F)F)ccc(Cl)c4F)cnc3C)cn2)CCC1 [Example 188, 6-(3-Chloro-6-(difluoromethyl)-2-fluorophenyl)-3-methyl-N-(1-(1-(4-methyl-2-((1R,5S)-2-oxo-3-azabicyclo[3.1.0]hexan-3-yl)pyrimidin-5-yl)cyclobutyl)-1H-pyrazol-4-yl)pyrazine-2-carboxamide]	3110	6.5
Cc1ncc(-c2c(C(F)F)ccc(Cl)c2F)nc1C(=O)Nc1cnn(C(CO)c2ccc(N3CC4CC4C3=O)nc2)c1 (single isomer, unassigned) [Example 163, 6-(3-Chloro-6-(difluoromethyl)-2-fluorophenyl)-N-(1-((S or R)-2-hydroxy-1-(6-((1S,5R or 1R,5S)-2-oxo-3-azabicyclo[3.1.0]hexan-3-yl)pyridin-3-yl)ethyl)-1H-pyrazol-4-yl)-3-methylpyrazine-2-carboxamide]	> 10000	9.2
Cc1ncc(-c2c(C(F)F)ccc(Cl)c2F)nc1C(=O)Nc1cnn(C(C)c2cnc(N3C[C@H]4C[C@H]4C3=O)c3c2OC(F)(F)O3)c1 (single isomer, unassigned) [Example 247, 6-(3-Chloro-6-(difluoromethyl)-2-fluorophenyl)-N-(1-((S or R)-1-(2,2-difluoro-4-((1R,5S)-2-oxo-3-azabicyclo[3.1.0]hexan-3-yl)-[1,3]dioxolo[4,5-c]pyridin-7-yl)ethyl)-1H-pyrazol-4-yl)-3-methylpyrazine-2-carboxamide]	9240	0.8
CC(c1cnc(N2C[C@H]3C[C@H]3C2=O)c(C(F)F)c1)n1cc(NC(=O)c2cncc(-c3c(C(F)F)ccc(Cl)c3F)n2)cn1 (single isomer, unassigned) [Example 77, 6-(3-Chloro-6-(difluoromethyl)-2-fluorophenyl)-N-(1-((S or R)-1-(5-(difluoromethyl)-6-((1R,5S)-2-oxo-3-azabicyclo[3.1.0]hexan-3-yl)pyridin-3-yl)ethyl)-1H-pyrazol-4-yl)pyrazine-2-carboxamide]	7920	12.6
Cc1ccc(Cl)c(F)c1-c1cncc(C(=O)Nc2cnn(C(C)c3cnc(N4C[C@H]5C[C@H]5C4=O)nc3C)c2)n1 (single isomer, unassigned) [Example 109, 6-(3 -Chloro-2-fluoro-6-methylphenyl)-N-(1-((R or S)-1-(4-methyl-2-((1R,5S)-2-oxo-3-azabicyclo[3.1.0]hexan-3-yl)pyrimidin-5-yl)ethyl)-1H-pyrazol-4-yl)pyrazine-2-carboxamide]	1920	5.1

These reach a lower IC50 [1]. Values come first.

IC50 [1] [nM]	IC50 [2] [nM]	SMILES
550	0.8	Cc1ncc(-c2c(C(F)F)ccc(Cl)c2F)nc1C(=O)Nc1cnn(C(C)c2cnc(N3C[C@H]4C[C@H]4C3=O)c(C)n2)c1 (single isomer, unassigned) [Example 14, 6-(3-Chloro-6-(difluoromethyl)-2-fluorophenyl)-3-methyl-N-(1-((S or R)-1-(6-methyl-5-((1R,5S)-2-oxo-3-azabicyclo[3.1.0]hexan-3-yl)pyrazin-2-yl)ethyl)-1H-pyrazol-4-yl)pyrazine-2-carboxamide]
468	2.5	Cc1cc(C(C)n2cc(NC(=O)c3cncc(-c4c(OC(F)F)ccc(Cl)c4F)n3)cn2)nnc1N1C[C@H]2C[C@H]2C1=O (single isomer, unassigned) [Example 115, 6-(3-Chloro-6-(difluoromethoxy)-2-fluorophenyl)-N-(1-((R or S)-1-(5-methyl-6-((1R,5S)-2-oxo-3-azabicyclo[3.1.0]hexan-3-yl)pyridazin-3-yl)ethyl)-1H-pyrazol-4-yl)pyrazine-2-carboxamide]
441	0.4	C[C@@H](c1cnc(N2C[C@H]3C[C@H]3C2=O)nc1)n1cc(NC(=O)c2nc(-c3c(C(F)F)ccc(Cl)c3F)cnc2CO)cn1 [Example 193]
389	0.3	CC(c1cnc(N2C[C@H]3C[C@H]3C2=O)c(F)c1)n1cc(NC(=O)c2nc(-c3c(C(F)F)ccc(Cl)c3F)cnc2CO)cn1 (single isomer, unassigned) [Example 205, 6-(3-Chloro-6-(difluoromethyl)-2-fluorophenyl)-N-(1-((S or R)-1-(5-fluoro-6-((1R,5S)-2-oxo-3-azabicyclo[3.1.0]hexan-3-yl)pyridin-3-yl)ethyl)-1H-pyrazol-4-yl)-3-(hydroxymethyl)pyrazine-2-carboxamide]
364	1	Cc1ncc(-c2c(OC(F)F)ccc(Cl)c2F)nc1C(=O)Nc1cnn(C(C)c2cnc(N3C[C@H]4C[C@H]4C3=O)c(C)n2)c1 (single isomer, unassigned) [Example 123, 6-(3-Chloro-6-(difluoromethoxy)-2-fluorophenyl)-3-methyl-N-(1-((S or R)-1-(6-methyl-5-((1R,5S)-2-oxo-3-azabicyclo[3.1.0]hexan-3-yl)pyrazin-2-yl)ethyl)-1H-pyrazol-4-yl)pyrazine-2-carboxamide]
244	0.9	Cc1ncc(-c2c(C(F)F)ccc(Cl)c2F)nc1C(=O)Nc1cnn(Cc2cnc(N3C[C@H]4C[C@H]4C3=O)c3c2OCO3)c1 [Example 149, 6-(3-Chloro-6-(difluoromethyl)-2-fluorophenyl)-3-methyl-N-(1-((4-((1R,5S)-2-oxo-3-azabicyclo[3.1.0]hexan-3-yl)-[1,3]dioxolo[4,5-c]pyridin-7-yl)methyl)-1H-pyrazol-4-yl)pyrazine-2-carboxamide]
167	3.8	Cc1cc(Cn2cc(NC(=O)c3nc(-c4c(C(F)F)ccc(Cl)c4F)cnc3C(C)O)cn2)nnc1N1C[C@H]2C[C@H]2C1=O (single isomer, unassigned) [Example 209]
11	0.3	Cc1c(C(C)n2cc(NC(=O)c3nc(-c4c(C(F)F)ccc(Cl)c4F)cnc3CO)cn2)cnc(N2C[C@H]3C[C@H]3C2=O)c1C (single isomer, unassigned) [Example 202, 6-(3-Chloro-6-(difluoromethyl)-2-fluorophenyl)-N-(1-((R or S)-1-(4,5-dimethyl-6-((1R,5S)-2-oxo-3-azabicyclo[3.1.0]hexan-3-yl)pyridin-3-yl)ethyl)-1H-pyrazol-4-yl)-3-(hydroxymethyl)pyrazine-2-carboxamide]

— patent US20230286958A1, “PLASMA KALLIKREIN INHIBITORS” (Merck Sharp & Dohme LLC, priority 2020, published 2023)
